System: PC12 cells
Test: PC12 cell survival under serum deprivation (CellTiter-Glo)
Type: cell-based, rat
Conditions: 72 h serum-free; NS = RLU increased <25% at 5 uM
Protocol: Each culture condition was performed in quadruplicate in each experiment and the mean values were calculated. The results represent mean±SEM of relative light unit values when compared to the mean values obtained in the presence of the medium alone. A total of 13 experiments were performed and the statistical significance was analyzed using GraphPad Prism software using ANOVA, followed by paired t-test. The symbol * indicates P-values <0.01.
PC12 cells were cultured in DMEM supplemented with 10% fetal calf serum and 5% horse serum. […] Cell viability was analyzed by CellTiter-Glo® reagent (Promega).
PC12 cells were cultured in DMEM supplemented with 10% fetal calf serum and 5% horse serum. […] Cell survival of the serum-starved cells was analyzed by CellTiter-Glo® reagent luminescence reading.
FIG. 2 illustrates neuroprotective effects of Compounds 1-5 when tested in PC12 cell protection assays. PC12 cells were subjected to serum deprivation as described under FIG. 1.
PC12 cells were cultured in DMEM supplemented with 10% fetal calf serum and 5% horse serum. […] Cell survival of the serum-starved cells was analyzed by CellTiter-Glo® reagent luminescence reading (relative light units, “RLU”). […] “NS” indicates RLU increased <25% when compounds were tested at 5 uM.

**Q.** `Cc1cc(C)n2nc(SCCOc3ccc(F)c(Cl)c3)nc2n1` [Example 6] was tested. Which “PC12 cell proliferation (CellTiter-Glo ®) Concentration at which RLU increased >25% compared to medium control” value did it give?
**A.** <5 µM

Same assay, conditions: Rattus norvegicus, PC-12; 72 h serum-free; NS = RLU increased <25% at 5 uM; read-out: PC12 cell proliferation (CellTiter-Glo ®) Concentration at which RLU increased >25% compared to medium control

**Q.** For `Cc1cc(C)n2nc(SCCOc3ccccc3)nc2n1` [Example 2, 5,7-dimethyl-2-[(2-phenoxyethyl)sulfanyl]-[1,2,4]-triazolo[1,5-a]pyrimidine], which minimal effective concentration is on record?
**A.** < 5 µM

**Q.** With `Cc1cc(C)n2nc(SCCOc3ccc(F)cc3)nc2n1` [Example 3, 2-{[2-(4-fluorophenoxy)ethyl]sulfanyl}-5,7-dimethyl-[1,2,4]triazolo[1,5-a]pyrimidine] as the compound, how does the minimal effective concentration read?
**A.** < 5 µM

**Q.** For `Cc1cc(C)n2nc(SCCOc3ccc(Cl)c(F)c3)nc2n1` [Example 4, 2-{[2-(4-chloro-3-fluorophenoxy)ethyl]sulfanyl}-5,7-dimethyl-[1,2,4]triazolo[1,5-a]pyrimidine], which minimal effective concentration is on record?
**A.** < 5 µM

**Q.** `Cc1cc(C)n2nc(SCCOc3ccc(Cl)c(Cl)c3)nc2n1` [Example 5, 2-{[2-(3,4-dichlorophenoxy)ethyl]sulfanyl}-5,7-dimethyl-[1,2,4]-triazolo[1,5-a]pyrimidine] was tested. Which minimal effective concentration did it give?
**A.** < 5 µM

**Q.** For `Cc1cc(C)n2nc(SCCOc3ccc(F)c(F)c3)nc2n1` [Example 7, 2-{[2-(3,4-difluorophenoxy)ethyl]sulfanyl}-5,7-dimethyl-[1,2,4]triazolo[1,5-a]pyrimidine], which minimal effective concentration is on record?
**A.** < 5 µM

**Q.** `CCc1ccc(OCCSc2nc3nc(C)cc(C)n3n2)cc1` [Example 8, 2-{[2-(4-ethylphenoxy)ethyl]sulfanyl}-5,7-dimethyl-[1,2,4]triazolo[1,5-a]pyrimidine] was tested. Which minimal effective concentration did it give?
**A.** < 5 µM

**Q.** `Cc1cc(C)n2nc(SCCN(CCO)c3ccccc3)nc2n1` [Example 9, 2-{[2-({5,7-Dimethyl-[1,2,4]triazolo[1,5-a]pyrimidin-2-yl}sulfanyl)ethyl](phenyl)amino}ethan-1-ol] was tested. Which minimal effective concentration did it give?
**A.** < 5 µM

**Q.** Which minimal effective concentration does the source give for `Cc1cc(C)n2nc(OCCCC3CCCC3)nc2n1` [Example 12, 2-(3-cyclopentylpropoxy)-5,7-dimethyl-[1,2,4]-triazolo[1,5-a]pyrimidine] here?
**A.** < 5 µM

**Q.** `CCc1cc(CC)n2nc(OCCN(CCO)c3ccc(F)cc3)nc2n1` [Example 14, 2-{[2-({5,7-diethyl-[1,2,4]triazolo[1,5-a]pyrimidin-2-yl}oxy)ethyl](4-fluorophenyl)amino}ethan-1-ol] was tested. Which minimal effective concentration did it give?
**A.** < 5 µM

**Q.** Which minimal effective concentration does the source give for `CCc1cc(CC)n2nc(OCCOc3ccc(F)cc3)nc2n1` [Example 15, 5,7-diethyl-2-[2-(4-fluorophenoxy)ethoxy]-[1,2,4]triazolo[1,5-a]pyrimidine] here?
**A.** < 5 µM

**Q.** `CCc1cc(CC)n2nc(OCCOc3ccc(Cl)cc3)nc2n1` [Example 16, 5,7-diethyl-2-[-2-(4-chlorophenoxy)ethoxy]-[1,2,4]triazolo[1,5-a]pyrimidine] was tested. Which minimal effective concentration did it give?
**A.** < 5 µM

**Q.** For `CCc1cc(CC)n2nc(OCCN(CCO)c3ccccc3)nc2n1` [Example 17, 2-{[2-({5,7-Diethyl-[1,2,4]triazolo[1,5-a]pyrimidin-2-yl}oxy)ethyl](phenyl)amino}ethan-1-ol], which minimal effective concentration is on record?
**A.** < 5 µM

**Q.** How did the minimal effective concentration turn out when `CCc1cc(CC)n2nc(NCCOc3ccccc3)nc2n1` [Example 18, 5,7-diethyl-N-(2-phenoxyethyl)-[1,2,4]triazolo[1,5-a]pyrimidin-2-amine] was run?
**A.** < 5 µM

**Q.** With `Cc1cc(C)n2nc(NCCOc3ccc(Cl)cc3)nc2n1` [Example 19, N-[2-(4-chlorophenoxy)ethyl]-5,7-dimethyl-[1,2,4]triazolo[1,5-a]pyrimidin-2-amine] as the compound, how does the minimal effective concentration read?
**A.** < 5 µM

**Q.** How did the minimal effective concentration turn out when `CCc1cc(CC)n2nc(CCCN(CCO)c3ccc(F)cc3)nc2n1` [Example 20, 2-[(3-{5,7-diethyl-[1,2,4]triazolo[1,5-a]pyrimidin-2-yl}propyl)(4-fluorophenyl)amino]ethan-1-ol] was run?
**A.** < 5 µM

**Q.** Which minimal effective concentration does the source give for `CCc1cc(CC)n2nc(CCCN(CCOC(C)=O)c3ccc(F)cc3)nc2n1` [Example 21, 2-[(3-{5,7-diethyl-[1,2,4]triazolo[1,5-a]pyrimidin-2-yl}propyl)(4-fluorophenyl)amino]ethyl acetate] here?
**A.** < 5 µM
